Assays:
[1] = test system: organotypic cultures of rat hippocampus; test: LPC-induced demyelination in hippocampal organotypic slice culture (MBP immunofluorescence); assay type: cell-based, Wistar rats; details: 10 μm drug, 24 h post-LPC treatment (250 μg/ml LPC for 18 hours); compared to control
Method: Slices were maintained in normal organotypic medium for 10 days, at which point demyelination was induced by exposing the cultures to 250 μg/ml lysophosphatidylcholine (LPC) in the medium for 18 hours. After the LPC exposure, slices were returned to LPC free medium containing either 10 μm nefiracetam, 10 μm piracetam, 10 μm levetiracetam, 10 μm aniracetam, or no drug. […] Protoc. […] Labelled MBP in the cultures was imaged by confocal microscopy, and the degree of myelination was compared to time matched cultures that had not undergone LPC exposure.

[2] = clinical studies, oral administration; cited from earlier work
[3] = test system: C57BL/6 mice on cuprizone diet; test: Cuprizone animal model of demyelination (luxol fast blue myelin staining, corpus callosum); assay type: in vivo; details: 30 mg/kg/day i.p. from 5 days before return to normal diet; 1 day time-point after 6 weeks cuprizone (0.2% wt/wt) diet
Method: Demyelination was induced by feeding 12-14 week old C57B1/6 mice a diet containing 0.2% cuprizone (bis-cyclohexanone oxaldihydrazone) mixed into food pellets. This diet was maintained ad libitum for 6 weeks before returning animals to normal chow (T=0) in order to study remyelination. Control animals received control chow throughout the study. Commencing from 5 days before the return to control chow (T=−5 days), animals received daily intra-peritoneal injections of 30 mg/kg nefiracetam or vehicle only until the end of the study. At different time points, (T=1 day, T=3 days, T=7 days) animals were sacrificed, brains were snap frozen in Optimal Cutting Temperature (OTC) Compound and stored. Coronal frozen sections, 20 μm thick, were cut using a cryostat at approximately −1.8 mm from bregma. Sections were fixed in 70% ethanol, defatted in 50% chloroform/50% ethanol, rehydrated, and then myelin was stained with luxol fast blue. The degree of myelination in the corpus callosum was assessed based on the intensity of the luxol fast blue staining

[4] = test system: Lewis rats susceptible to develop experimental autoimmune encephalomyelitis (EAE); test: EAE animal model of multiple Sclerosis (clinical score); assay type: in vivo; details: versus saline-treated controls, n=5

SMILES | MBP expression (percent of field of view positive for MBP) [1] | tolerability in humans [2] | myelin levels (myelin density) in the corpus callosum [3] | clinical score (magnitude and timing of clinical symptoms) ([4]; increasing doses (9, 15 and 30 mg/kg) i.p. daily from onset of clinical symptoms) | clinical score (magnitude and timing of clinical symptoms) ([4]; treated from day of inoculation with MBP)
CC[C@H](C(N)=O)N1CCCC1=O [levetiracetam] | restored MBP expression to control levels or above | – | – | – | –
COc1ccc(C(=O)N2CCCC2=O)cc1 [aniracetam] | restored MBP expression to control levels or above | – | – | – | –
Cc1cccc(C)c1NC(=O)CN1CCCC1=O [Nefiracetam, N-(2,6-dimethylphenyl)-2-(2-oxo-1-pyrrolidinyl)acetamide] | restored MBP expression to control levels or above | well tolerated | completely restored myelin levels to normal | No significant differences were seen | No significant difference was seen
NC(=O)CN1CCCC1=O [piracetam] | restored MBP expression to control levels or above | – | – | – | –

Reference: patent publication US20120269762A1, “CAUSAL THERAPY OF DISEASES OR CONDITIONS ASSOCIATED WITH CNS OR PNS DEMYELINATION” (UNIVERSITY COLLEGE DUBLIN, NATIONAL UNIVERSITY OF IRELAND, …, priority 2009, published 2012)
